In ChEMBL document CHEMBL4033698, “One-pot synthesis and biological evaluation of N-(aminosulfonyl)-4-podophyllotoxin carbamates as potential anticancer agents” (Bioorg Med Chem Lett, 2017):
Activity calls are given as the source filed them. The calls are words filed in the database; no cut-off is given here.

Legend:
[1] = test system: HeLa; experiment: Inhibition of tubulin polymerization in human HeLa cells assessed as reduction in polymerized tubulin expression at 0.5 uM after 24 hrs by chemiluminescence assay; assay type: cell-based
[2] = test system: HeLa; experiment: Inhibition of tubulin polymerization in human HeLa cells assessed as reduction in polymerized tubulin expression at 2 uM after 24 hrs by chemiluminescence assay; assay type: cell-based
[3] = test system: A549; experiment: Cytotoxicity against human A549 cells after 48 hrs by MTT assay; assay type: functional, cell-based; settings: A549, 48 h
[4] = test system: HeLa; experiment: Induction of microtubule disruption in human HeLa cells assessed as cell shrinkage after 6 hrs by DAPI staining based immunofluorescence microscopic analysis
[5] = test system: HeLa; experiment: Induction of microtubule disruption in human HeLa cells assessed as nuclear fragmentation after 6 hrs by DAPI staining based immunofluorescence microscopic analysis; assay type: cell-based
[6] = test system: HeLa; experiment: Induction of apoptosis in human HeLa cells assessed as increase in intracellular reactive oxygen species level after 24 hrs by DCFH-DA staining based laser confocal microscopic analysis; assay type: functional, cell-based
[7] = biological target: Cyclin-dependent kinase 1 (Homo sapiens) (UniProt P06493); experiment: Reduction in phosphorylated CDC2 level in human HeLa cells after 24 hrs by Western blot analysis; assay type: cell-based
[8] = test system: HeLa; experiment: Induction of microtubule disruption in human HeLa cells assessed as round microtubule after 6 hrs by DAPI staining based immunofluorescence microscopic analysis; assay type: cell-based
[9] = test system: HeLa; experiment: Cytotoxicity against human HeLa cells after 48 hrs by MTT assay; assay type: functional, cell-based
[10] = test system: HeLa; experiment: Upregulation of CDC2 expression in human HeLa cells after 24 hrs by Western blot analysis; assay type: functional, cell-based
[11] = test system: HCT-8; experiment: Cytotoxicity against human HCT8 cells after 48 hrs by MTT assay; assay type: functional, cell-based; settings: HCT-8, 48 h
[12] = test system: HeLa; experiment: Induction of microtubule disruption in human HeLa cells assessed as nuclear condensation after 6 hrs by DAPI staining based immunofluorescence microscopic analysis; assay type: cell-based
[13] = test system: HeLa; experiment: Induction of microtubule disruption in human HeLa cells assessed as dense microtubule after 6 hrs by DAPI staining based immunofluorescence microscopic analysis; assay type: cell-based
[14] = test system: HepG2; experiment: Cytotoxicity against human HepG2 cells after 48 hrs by MTT assay; assay type: functional, cell-based; settings: HepG2, 48 h
[15] = test system: HeLa; experiment: Induction of apoptosis in human HeLa cells assessed as morphological changes at 0.1 to 1 uM after 24 hrs by Hoechst 33258 staining based fluorescence microscopic analysis; assay type: functional, cell-based
[16] = test system: HeLa; experiment: Upregulation of cyclin B1 expression in human HeLa cells after 24 hrs by Western blot analysis; assay type: functional, cell-based
[17] = test system: HeLa; experiment: Induction of apoptosis in human HeLa cells assessed as nuclear fragmentation at 0.1 to 1 uM after 24 hrs by Hoechst 33258 staining based fluorescence microscopic analysis; assay type: functional, cell-based
[18] = test system: WI-38; experiment: Cytotoxicity against human WI38 cells after 48 hrs by MTT assay; assay type: cell-based; settings: WI-38, 48 h
[19] = test system: HeLa; experiment: Cell cycel arrest in human HeLa cells assessed as decrease in accumulation at G1 phase after 24 hrs by propidium iodide staining based assay; assay type: functional
[20] = test system: HeLa; experiment: Induction of microtubule disruption in human HeLa cells assessed as short microtubule after 6 hrs by DAPI staining based immunofluorescence microscopic analysis; assay type: cell-based
[21] = test system: HeLa; experiment: Cell cycel arrest in human HeLa cells assessed as increase in accumulation at G2/M phase after 24 hrs by propidium iodide staining based assay; assay type: functional
[22] = test system: HeLa; experiment: Induction of apoptosis in human HeLa cells assessed as upregulation of p53 expression by Western blot analysis; assay type: functional, cell-based
[23] = test system: HeLa; experiment: Induction of microtubule disruption in human HeLa cells assessed as dense microtubule at 1 uM after 6 hrs by DAPI staining based immunofluorescence microscopic analysis; assay type: cell-based
[24] = test system: HeLa; experiment: Induction of microtubule disruption in human HeLa cells assessed as short microtubule at 1 uM after 6 hrs by DAPI staining based immunofluorescence microscopic analysis; assay type: cell-based
[25] = test system: HeLa; experiment: Induction of microtubule disruption in human HeLa cells assessed as round microtubule at 1 uM after 6 hrs by DAPI staining based immunofluorescence microscopic analysis; assay type: cell-based

Cyclin-dependent kinase 1 (Homo sapiens), sequence (P06493 whole entry, looked up): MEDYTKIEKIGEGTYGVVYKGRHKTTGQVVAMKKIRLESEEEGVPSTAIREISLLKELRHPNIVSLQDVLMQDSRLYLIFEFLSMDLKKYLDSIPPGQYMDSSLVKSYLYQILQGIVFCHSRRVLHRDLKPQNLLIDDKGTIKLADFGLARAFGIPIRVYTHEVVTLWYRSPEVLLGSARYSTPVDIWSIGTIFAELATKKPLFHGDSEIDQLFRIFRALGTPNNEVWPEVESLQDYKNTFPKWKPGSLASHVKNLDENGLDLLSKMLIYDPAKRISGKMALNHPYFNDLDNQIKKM

Compound	IC50 [3]	IC50 [9]	IC50 [11]	IC50 [14]	IC50 [18]	further results
COc1cc([C@@H]2c3cc4c(cc3[C@H](OC(=O)NS(=O)(=O)N3CCOCC3)[C@H]3COC(=O)[C@H]23)OCO4)cc(OC)c1OC	1.5 µM	0.5 µM	16.5 µM	0.7 µM	109 µM	inhibition [1]: Active; inhibition [2]: Active; Activity [4]: Dose-dependent effect; Activity [5]: Dose-dependent effect; Activity [6]: Dose-dependent effect; Activity [7]: Dose-dependent effect; Activity [8]: Dose-dependent effect; Activity [10]: Dose-dependent effect; Activity [12]: Dose-dependent effect; Activity [13]: Dose-dependent effect; Activity [15]: Active; Activity [16]: Dose-dependent effect; Activity [17]: Active; Activity [19]: Dose-dependent effect; Activity [20]: Dose-dependent effect; Activity [21]: Dose-dependent effect; Activity [22]: Dose-dependent effect
COc1cc([C@@H]2c3cc4c(cc3[C@H](OC(=O)NS(=O)(=O)N3CCN(c5ccc([N+](=O)[O-])cc5)CC3)[C@H]3COC(=O)[C@H]23)OCO4)cc(OC)c1OC	13.7 µM	35.6 µM	> 100 µM	6 µM	77.2 µM	–
CCCNS(=O)(=O)NC(=O)O[C@H]1c2cc3c(cc2[C@@H](c2cc(OC)c(OC)c(OC)c2)[C@H]2C(=O)OC[C@@H]21)OCO3	9 µM	1.9 µM	23.2 µM	2.8 µM	63.3 µM	–
COc1cc([C@@H]2c3cc4c(cc3[C@H](OC(=O)NS(=O)(=O)NC3CCN(C)CC3)[C@H]3COC(=O)[C@H]23)OCO4)cc(OC)c1OC	3.3 µM	4.1 µM	96 µM	15.6 µM	68.7 µM	–
COc1cc([C@@H]2c3cc4c(cc3[C@H](OC(=O)NS(=O)(=O)N3CCN(C)CC3)[C@H]3COC(=O)[C@H]23)OCO4)cc(OC)c1OC	5.9 µM	0.4 µM	> 100 µM	1.5 µM	86.5 µM	–
CC(=O)O[C@H]1C(=O)[C@@]2(C)[C@H]([C@H](OC(=O)c3ccccc3)[C@]3(O)C[C@H](OC(=O)[C@H](O)[C@@H](NC(=O)c4ccccc4)c4ccccc4)C(C)=C1C3(C)C)[C@]1(OC(C)=O)CO[C@@H]1C[C@@H]2O	–	–	–	–	–	inhibition [2]: inactive
COc1cc2c(c(OC)c1OC)-c1ccc(OC)c(=O)cc1[C@@H](NC(C)=O)CC2	–	–	–	–	–	Activity [23]: Active; Activity [24]: Active; Activity [25]: Active
COc1cc([C@@H]2c3cc4c(cc3[C@H](OC(=O)NS(=O)(=O)NC3CCCCC3)[C@H]3COC(=O)[C@H]23)OCO4)cc(OC)c1OC	2.6 µM	4.6 µM	20.1 µM	3.7 µM	78.5 µM	–
COc1cc([C@@H]2c3cc4c(cc3[C@H](OC(=O)NS(=O)(=O)N3CCN(C5CCCC5)CC3)[C@H]3COC(=O)[C@H]23)OCO4)cc(OC)c1OC	9.8 µM	57.6 µM	–	–	47.9 µM	–
COc1cc([C@@H]2c3cc4c(cc3[C@H](OC(=O)NS(=O)(=O)NC3CC3)[C@H]3COC(=O)[C@H]23)OCO4)cc(OC)c1OC	4.3 µM	3.9 µM	45 µM	8.8 µM	65.3 µM	–
COc1cc([C@@H]2c3cc4c(cc3[C@H](OC(=O)NS(=O)(=O)N3CCN(c5ccc(F)cc5)CC3)[C@H]3COC(=O)[C@H]23)OCO4)cc(OC)c1OC	12.2 µM	7.6 µM	–	–	44.3 µM	–
COc1cc([C@@H]2c3cc4c(cc3[C@@H](O[C@@H]3O[C@@H]5CO[C@@H](C)O[C@H]5[C@H](O)[C@H]3O)[C@H]3COC(=O)[C@H]23)OCO4)cc(OC)c1O [ETOPOSIDE]	–	24.9 µM	26.3 µM	13.4 µM	46.9 µM	–
